The record followed here is patent US12398178B2, “Collections of peptides, peptide agents, and methods of use thereof” (Parabilis Medicines, Inc., priority 2018, dated 2025).

A short description of data set [1]: Measurement of LogK (log k IAM by HPLC on IAM.PC.DD2 column). In kind it is physicochemical. The note with it: 50 mM ammonium acetate pH 7.4 / acetonitrile, 30° C. The procedure: Measurement of LogK: LogK values were measured on a Agilent 1260 HPLC with UV detector (254,280 nm) using a IAM.PC.DD2 100×4.6 mm column (Regis Technologies 1-774011-300) with a 6.5 min gradient of 0-90% B with mobile phase A of 50 mM ammonium acetate pH 7.4, and mobile phase B of Acetonitrile. The temperature was 30° C., the flow rate 1.5 mL/min, and the injection volume 3-5 uL. Calibration mixture IAM was purchased from Bio-mimetic Chromatography Ltd and used to run calibration, calculate CHI IAM value, then calculate logk IAM using equation: log k IAM=0.046*CHI IAM+0.42.

Another data set concerns the target T1, full-length β-Catenin (Homo sapiens, UniProt P35222).
T1 construct: Probe solution (15 nM full-length β-Catenin, 20 nM FITC labeled Axin peptide in buffer)
T1 sequence (P35222 1-781): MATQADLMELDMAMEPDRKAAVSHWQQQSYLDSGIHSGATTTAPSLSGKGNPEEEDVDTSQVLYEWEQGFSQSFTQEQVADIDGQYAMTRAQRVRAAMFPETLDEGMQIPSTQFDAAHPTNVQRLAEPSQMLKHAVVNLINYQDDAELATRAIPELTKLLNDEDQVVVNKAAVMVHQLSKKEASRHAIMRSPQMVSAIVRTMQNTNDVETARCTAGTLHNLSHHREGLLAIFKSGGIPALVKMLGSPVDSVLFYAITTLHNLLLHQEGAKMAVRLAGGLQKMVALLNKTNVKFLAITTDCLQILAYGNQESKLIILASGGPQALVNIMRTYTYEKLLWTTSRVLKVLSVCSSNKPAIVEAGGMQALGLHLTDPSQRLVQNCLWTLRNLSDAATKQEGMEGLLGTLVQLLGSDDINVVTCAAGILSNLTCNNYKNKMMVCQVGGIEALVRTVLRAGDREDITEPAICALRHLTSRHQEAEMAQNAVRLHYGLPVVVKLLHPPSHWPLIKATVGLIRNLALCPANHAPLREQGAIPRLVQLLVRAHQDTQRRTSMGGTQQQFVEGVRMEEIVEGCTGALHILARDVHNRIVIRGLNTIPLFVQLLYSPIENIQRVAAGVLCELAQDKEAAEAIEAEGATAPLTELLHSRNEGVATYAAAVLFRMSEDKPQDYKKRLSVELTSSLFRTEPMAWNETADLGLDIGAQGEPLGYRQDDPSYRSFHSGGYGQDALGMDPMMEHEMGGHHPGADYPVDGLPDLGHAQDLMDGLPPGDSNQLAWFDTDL
In words: Competition fluorescence polarization assay for binding to beta-catenin (displacement of FITC labeled Axin peptide probe). The note with it: 15 nM full-length β-Catenin, 20 nM FITC labeled Axin peptide probe, 3-fold serial dilution from 5 μM; read-out: bCat EC50. The procedure: Peptide assessment: In one assay for assessing binding to beta-catenin, peptide solutions were prepared in buffer (50 mM Tris pH 8.0, 250 mM NaCl, 2% glycerol, 0.5 mM EDTA, 0.02% w/v sodium azide) using a 3-fold serial dilution from 5 μM. Probe solution (15 nM full-length β-Catenin, 20 nM FITC labeled Axin peptide in buffer ([FAM-PEG1-RRWPR(S5)ILD(S5)HVRRVWR (SEQ ID NO: 44)] where the two S5 residues are stapled, as reported in: Proc Natl Acad Sci USA. 2012 Oct. 30; 109(44):17942-7)) was prepared and incubated for 5 minutes, then 40 μL per well plated in a black polystyrene 384-well plate (Corning). Equal volume of the titrated peptide was added to the plate and incubated protected from light for 15 minutes prior to read. Reads were performed on a Spectramax M5 (Molecular Devices) in duplicate.

Data set [2] can be described thus: Measurement of LogD (CHI logD by HPLC). The data set is classed as physicochemical. The conditions noted are these: CHI log D, 50 mM ammonium acetate pH 7.4 / acetonitrile gradient, C-18 column, 25° C. The procedure: Measurement of LogD: LogD values were measured on a Agilent 1260 HPLC with UV detector (254, 220 nm), using a Gemini NX C-18 50×3 mm column (Phenomenex) with a 6-minute 0-100% mobile phase gradient of A) 50 mM ammonium acetate pH 7.4 and B) Acetonitrile at 25° C. with a flow rate of 1 mL/min and injection volume of 3-5 uL.

pEC50: −log10 of the molar value. Positions of bridges follow the written chain, without caps; N, C: chain ends. No end group written: not given here. Linker 16 = not defined here

A word on the pEC50: it is −log10 of the EC50, conventionally taken in molar units. For orientation: LogD means the decadic logarithm of the distribution of all forms, ionised or not, between an organic phase and buffer at a given pH. Read a low LogD as lower lipophilicity. Regarding “37 (ADPATHRCEWAALHCELV; linker 8-15 via Linker 16 (inferred); reading uncertain) [Compound 37]”, the LogK in data set [1] turned out to be 1.34. In addition, in the data set with full-length β-Catenin, the pEC50 is less than 5.00. Also, in data set [2], the pH-dependent lipophilicity (LogD) is 0.84.
By chromatographic logD is commonly meant a lipophilicity value derived from retention on a column. A low value points to lower lipophilicity. Turning to “GPAKPEAPGEDASPLELNLYYLDLHDYLQQVA-NH2 (C-terminus assumed) [Compound 30]”, the pEC50 at full-length β-Catenin is less than 5.00. In data set [2], this compound returned a chromatographic logD of 0.98.
`CC(C)C[C@@H]1NC(=O)[C@H](C)NC(=O)[C@H](C)NC(=O)[C@H](Cc2c[nH]c3ccccc23)NC(=O)[C@H](CCC(=O)O)NC(=O)[C@@H](NC(=O)[C@H](CCCNC(=N)N)NC(=O)[C@H](Cc2c[nH]cn2)NC(=O)[C@@H](NC(=O)[C@H](C)NC(=O)[C@@H]2CCCN2C(=O)[C@H](CC(=O)O)NC(=O)[C@H](C)N)[C@@H](C)O)CSCC(=O)Nc2cc(F)c(cc2F)NC(=O)CSC[C@@H](C(=O)N[C@@H](CCC(=O)O)C(=O)N[C@@H](CC(C)C)C(=O)N[C@H](C(N)=O)C(C)C)NC(=O)[C@H](Cc2c[nH]cn2)NC1=O` [Compound 32]: the pEC50 at full-length β-Catenin was 5.29. The same compound gave a chromatographic logD in data set [2] of 0.61.
